In PubChem BioAssay (NCI):
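Test compounds were applied to cells in 96-well plates for 48 hours at 5 doses. TGI marks complete inhibition of growth.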

How the values were obtained:
Assay in all cases: NCI anticancer screen, dose series, 48 h
[1] = test system: HCT-116 colon
[2] = test system: UO-31 renal
[3] = test system: U251 CNS
[4] = test system: LOX IMVI melanoma
[5] = test system: HOP-92 NSCLC
[6] = test system: A549 NSCLC
[7] = test system: MOLT-4 leukemia
[8] = test system: SN12C renal
[9] = test system: MDA-MB-231 breast
[10] = test system: PC-3 prostate
[11] = test system: KM12 colon
[12] = test system: SK-MEL-5 melanoma
[13] = test system: HOP-62 NSCLC
[14] = test system: SR leukemia
[15] = test system: SF-295 CNS
[16] = test system: OVCAR-3 ovarian
[17] = test system: M14 melanoma
[18] = test system: SW-620 colon
[19] = test system: BT-549 breast
[20] = test system: OVCAR-8 ovarian
[21] = test system: DU-145 prostate
[22] = test system: NCI-H460 lung
[23] = test system: HT29 colon
[24] = test system: UACC-257 melanoma
[25] = test system: K-562 leukemia
[26] = test system: MALME-3M melanoma
[27] = test system: 786-0 renal
[28] = test system: SK-MEL-28 melanoma
[29] = test system: TK-10 renal
[30] = test system: MDA-N
[31] = test system: SK-OV-3 ovarian
[32] = test system: T-47D breast
[33] = test system: SF-539 CNS
[34] = test system: NCI-H522 lung
[35] = test system: EKVX NSCLC
[36] = test system: IGROV1 ovarian
[37] = test system: UACC-62 melanoma
[38] = test system: MDA-MB-435
[39] = test system: CCRF-CEM leukemia
[40] = test system: NCI-H226 lung
[41] = test system: HCC-2998 colon
[42] = test system: COLO 205 colon
[43] = test system: OVCAR-5 ovarian
[44] = test system: OVCAR-4 ovarian
[45] = test system: SF-268 CNS
[46] = test system: MCF7 breast
[47] = test system: ACHN renal
[48] = test system: SNB-75 CNS
[49] = test system: SNB-19 CNS
[50] = test system: HL-60(TB) leukemia
[51] = test system: RXF 393 renal
[52] = test system: NCI-H23 lung
[53] = test system: RPMI-8226 leukemia
[54] = test system: A498 renal

Measured: TGI

Cc1nc2ccccc2c(=O)n1NC(=O)c1ccc(N)cc1
> 100 µM: [1] | [2] | [3] | [4] | [5] | [6] | [7] | [8] | [9] | [10] | [11] | [12] | [13] | [14] | [15] | [16] | [17] | [18] | [19] | [20] | [21] | [22] | [23] | [24] | [25] | [26] | [27] | [28] | [29] | [30] | [31] | [32] | [33] | [34] | [35] | [36] | [37] | [38] | [39] | [40] | [41] | [42] | [43] | [44] | [45] | [46] | [47] | [48] | [49] | [50] | [51] | [52] | [53] | [54]
